Measured values from ChEMBL document CHEMBL4811242, “Mechanistic selectivity investigation and 2D-QSAR study of some new antiproliferative pyrazoles and pyrazolopyridines as potential CDK2 inhibitors” (Eur J Med Chem, 2021).
pIC50, pKi: −log10 of the molar value.

Experiments:
MCF7 [1] = assay: Antiproliferative activity against human MCF7 cells assessed as inhibition of cell growth after 48 hrs by MTT assay; type: functional, cell-based; details: MCF7, 48 h
HepG2 [2] = assay: Antiproliferative activity against human HepG2 cells assessed as inhibition of cell growth after 48 hrs by MTT assay; type: functional, cell-based; details: HepG2, 48 h
CDK2/Cyclin A2 = CDK2/Cyclin A2 (Homo sapiens, UniProt P24941); assay: Inhibition of CDK2/Cyclin A2 (unknown origin) after 10 mins by ADP-Glo reagent based assay; type: protein-complex assay
[3] = Cytotoxicity against human THLE2 cells assessed as reduction in cell viability by MTT assay; type: cell-based, THLE-2
[4] = Selectivity index, ratio of CC50 for human THLE2 cells to IC50 for human HepG2 cells; type: toxicity; details: THLE2 cells and HepG2 cells, read-out: Ratio CC50/IC50
[5] = Cytotoxicity against human MCF10A cells assessed as reduction in cell viability by MTT assay; type: cell-based, MCF-10A
HepG2 [6] = assay: Induction of cell cycle arrest in human HepG2 cells assessed as accumulation at G0/G1 phase at IC50 after 48 hrs by propidium iodide staining based Flow cytometric analysis (reference value: 47.29%); type: functional
HepG2 [7] = assay: Induction of cell cycle arrest in human HepG2 cells assessed as accumulation at S phase at IC50 after 48 hrs by propidium iodide staining based Flow cytometric analysis (reference value: 45.37%); type: functional
HepG2 [8] = assay: Induction of cell cycle arrest in human HepG2 cells assessed as accumulation at G2/M phase at IC50 after 48 hrs by propidium iodide staining based Flow cytometric analysis (reference value: 7.34%); type: functional
HepG2 [9] = assay: Induction of cell cycle arrest in human HepG2 cells assessed as accumulation at pre-G1 phase at IC50 after 48 hrs by propidium iodide staining based Flow cytometric analysis (reference value: 1.52%); type: functional
HepG2 [10] = assay: Induction of apoptosis in human HepG2 cells assessed as total apoptotic cells at IC50 after 48 hrs by Annexin V-FITC/propidium iodide staining based flow cytometric analysis (reference value: 1.52 %); type: functional
HepG2 [11] = assay: Induction of apoptosis in human HepG2 cells assessed as early apoptotic cells at IC50 after 48 hrs by Annexin V-FITC/propidium iodide staining based flow cytometric analysis (reference value: 0.38 %); type: functional
HepG2 [12] = assay: Induction of apoptosis in human HepG2 cells assessed as late apoptotic cells at IC50 after 48 hrs by Annexin V-FITC/propidium iodide staining based flow cytometric analysis (reference value: 0.18 %); type: functional
HepG2 [13] = assay: Induction of apoptosis in human HepG2 cells assessed as caspase-3 concentration at IC50 by ELISA (reference value: 0.03822 +/- 0.0029 ng/ml); type: functional
HepG2 [14] = assay: Induction of apoptosis in human HepG2 cells assessed as fold increase in caspase-3 activation at IC50 by ELISA; type: functional
[15] = Selectivity index, ratio of CC50 for human MCF10A cells to IC50 for human MCF7 cells; type: toxicity; details: MCF10A cells and MCF7 cells, read-out: Ratio CC50/IC50
[16] = molecular target: Cyclin-dependent kinase 1/cyclin B1 (Homo sapiens, UniProt P06493); assay: Inhibition of CDK1/cyclin B (unknown origin); type: protein-complex assay
[17] = molecular target: Cyclin-dependent kinase 4/cyclin D1 (Homo sapiens, UniProt P11802); assay: Inhibition of CDK4/cyclin D1 (unknown origin); type: protein-complex assay
[18] = molecular target: Cyclin-dependent kinase 7/ cyclin H (Homo sapiens, UniProt P50613); assay: Inhibition of CDK7/cyclin H (unknown origin); type: protein-complex assay
MCF7 [19] = assay: Induction of cell cycle arrest in human MCF7 cells assessed as accumulation at G0/G1 phase at IC50 after 48 hrs by propidium iodide staining based Flow cytometric analysis (reference value: 55.71%); type: functional
MCF7 [20] = assay: Induction of cell cycle arrest in human MCF7 cells assessed as accumulation at S phase at IC50 after 48 hrs by propidium iodide staining based Flow cytometric analysis (reference value: 39.15%); type: functional
MCF7 [21] = assay: Induction of cell cycle arrest in human MCF7 cells assessed as accumulation at G2/M phase at IC50 after 48 hrs by propidium iodide staining based Flow cytometric analysis (reference value: […]%); type: functional
MCF7 [22] = assay: Induction of cell cycle arrest in human MCF7 cells assessed as accumulation at pre-G1 phase at IC50 after 48 hrs by propidium iodide staining based Flow cytometric analysis (reference value: 1.84%); type: functional
MCF7 [23] = assay: Induction of apoptosis in human MCF7 cells assessed as total apoptotic cells at IC50 after 48 hrs by Annexin V-FITC/propidium iodide staining based flow cytometric analysis (reference value: 1.84 %); type: functional
MCF7 [24] = assay: Induction of apoptosis in human MCF7 cells assessed as early apoptotic cells at IC50 after 48 hrs by Annexin V-FITC/propidium iodide staining based flow cytometric analysis (reference value: 0.57 %); type: functional
MCF7 [25] = assay: Induction of apoptosis in human MCF7 cells assessed as late apoptotic cells at IC50 after 48 hrs by Annexin V-FITC/propidium iodide staining based flow cytometric analysis (reference value: 0.28 %); type: functional
MCF7 [26] = assay: Induction of apoptosis in human MCF7 cells assessed as caspase-9 concentration at IC50 by ELISA (reference value: 2.018 +/- 0.14 ng/ml); type: functional
MCF7 [27] = assay: Induction of apoptosis in human MCF7 cells assessed as fold increase in caspase-9 concentration at IC50 by ELISA; type: functional
MCF7 [28] = assay: Cytotoxicity against human MCF7 cells
HepG2 [29] = assay: Cytotoxicity against human HepG2 cells

Chain of Cyclin-dependent kinase 1/cyclin B1 (P06493 whole entry): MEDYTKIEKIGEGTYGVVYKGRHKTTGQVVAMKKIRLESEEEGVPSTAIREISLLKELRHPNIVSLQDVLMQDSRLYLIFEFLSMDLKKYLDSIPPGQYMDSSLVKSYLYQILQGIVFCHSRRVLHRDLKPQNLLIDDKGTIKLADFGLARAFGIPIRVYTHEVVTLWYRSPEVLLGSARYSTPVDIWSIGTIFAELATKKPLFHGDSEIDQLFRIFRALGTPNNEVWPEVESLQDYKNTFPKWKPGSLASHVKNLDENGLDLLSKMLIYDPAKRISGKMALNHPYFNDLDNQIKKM
Chain of Cyclin-dependent kinase 1/cyclin B1 (P14635 whole entry, further chain): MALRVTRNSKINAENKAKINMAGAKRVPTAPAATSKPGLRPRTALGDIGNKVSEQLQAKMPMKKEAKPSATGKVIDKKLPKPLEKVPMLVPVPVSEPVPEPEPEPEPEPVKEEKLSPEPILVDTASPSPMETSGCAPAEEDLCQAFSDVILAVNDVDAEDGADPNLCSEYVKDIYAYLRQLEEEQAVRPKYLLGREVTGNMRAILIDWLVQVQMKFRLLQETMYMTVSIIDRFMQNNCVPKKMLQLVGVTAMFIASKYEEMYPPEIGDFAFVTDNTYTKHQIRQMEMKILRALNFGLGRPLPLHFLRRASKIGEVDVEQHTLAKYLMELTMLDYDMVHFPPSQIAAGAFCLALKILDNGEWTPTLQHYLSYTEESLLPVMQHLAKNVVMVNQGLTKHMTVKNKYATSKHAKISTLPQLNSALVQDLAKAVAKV
Chain of Cyclin-dependent kinase 4/cyclin D1 (P11802 whole entry): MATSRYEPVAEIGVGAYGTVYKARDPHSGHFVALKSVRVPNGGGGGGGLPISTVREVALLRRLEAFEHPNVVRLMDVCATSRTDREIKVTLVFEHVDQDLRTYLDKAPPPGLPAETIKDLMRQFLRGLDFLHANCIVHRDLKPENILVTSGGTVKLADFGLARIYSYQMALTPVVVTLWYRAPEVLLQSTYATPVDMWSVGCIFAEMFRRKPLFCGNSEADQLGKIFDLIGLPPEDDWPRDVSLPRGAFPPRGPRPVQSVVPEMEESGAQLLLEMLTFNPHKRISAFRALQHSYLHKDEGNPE
Chain of Cyclin-dependent kinase 4/cyclin D1 (P24385 whole entry, further chain): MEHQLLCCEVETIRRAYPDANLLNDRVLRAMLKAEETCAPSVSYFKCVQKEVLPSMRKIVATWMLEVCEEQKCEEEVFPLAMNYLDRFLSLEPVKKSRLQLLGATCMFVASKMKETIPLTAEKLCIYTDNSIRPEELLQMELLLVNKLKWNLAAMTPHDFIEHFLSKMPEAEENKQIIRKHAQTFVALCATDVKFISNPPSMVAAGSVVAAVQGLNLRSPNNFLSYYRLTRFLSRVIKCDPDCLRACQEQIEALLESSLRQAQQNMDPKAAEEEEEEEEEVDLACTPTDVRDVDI
Chain of Cyclin-dependent kinase 7/ cyclin H (P51946 whole entry): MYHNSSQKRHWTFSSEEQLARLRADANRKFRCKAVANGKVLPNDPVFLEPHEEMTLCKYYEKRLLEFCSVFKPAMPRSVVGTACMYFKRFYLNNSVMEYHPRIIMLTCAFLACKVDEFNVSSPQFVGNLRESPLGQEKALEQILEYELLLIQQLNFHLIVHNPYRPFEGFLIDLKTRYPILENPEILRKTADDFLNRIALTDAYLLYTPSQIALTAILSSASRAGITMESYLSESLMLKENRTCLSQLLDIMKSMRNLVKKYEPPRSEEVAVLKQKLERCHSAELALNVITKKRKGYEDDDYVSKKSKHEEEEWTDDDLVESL
Chain of Cyclin-dependent kinase 7/ cyclin H (P50613 whole entry): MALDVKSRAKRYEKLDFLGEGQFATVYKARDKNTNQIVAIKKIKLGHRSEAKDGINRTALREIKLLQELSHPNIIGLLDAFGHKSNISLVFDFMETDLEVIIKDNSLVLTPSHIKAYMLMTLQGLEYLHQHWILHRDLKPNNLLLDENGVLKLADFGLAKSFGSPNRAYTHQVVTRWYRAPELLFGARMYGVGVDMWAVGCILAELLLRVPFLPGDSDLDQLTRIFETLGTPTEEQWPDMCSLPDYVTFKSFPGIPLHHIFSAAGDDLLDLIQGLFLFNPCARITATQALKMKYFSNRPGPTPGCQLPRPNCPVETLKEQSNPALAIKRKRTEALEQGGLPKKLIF

SMILES	pIC50 (MCF7 [1])	pIC50 (HepG2 [2])	pIC50 (CDK2/Cyclin A2)	CC50 [3] [nM]	selectivity ratio [4]	further results
COc1ccc(-c2ccnc3c2c(-c2ccccc2)nn3-c2ccccc2)cc1	4.54	5.18	6.57			
Cc1ccc(C(=O)C=CNc2cc(-c3ccccc3)nn2-c2ccccc2)cc1	4.52	5.14	7.20			
O=C(C=CNc1cc(-c2ccccc2)nn1-c1ccccc1)c1ccc(Cl)cc1	5.09	4.39	6.91			
O=C(C=CNc1cc(-c2ccccc2)nn1-c1ccccc1)c1cccs1	4.81	5.62	6.70	19900	8.22	
COc1cccc2c1C(=O)c1c(O)c3c(c(O)c1C2=O)C[C@@](O)(C(=O)CO)C[C@@H]3O[C@H]1C[C@H](N)[C@H](O)[C@H](C)O1 [DOXORUBICIN]	5.73	5.14		12700		CC50 [5]: 13900 nM
c1ccc(-c2ccnc3c2c(-c2ccccc2)nn3-c2ccccc2)cc1	4.55	5.49	6.46	34200	10.7	
Fc1ccc(-c2ccnc3c2c(-c2ccccc2)nn3-c2ccccc2)cc1	5.80	5.80	7.38	19700	12.5	Activity (HepG2 [6]): 38.47%; Activity (HepG2 [7]): 23.89%; Activity (HepG2 [8]): 37.64%; Activity (HepG2 [9]): 32.19%; Activity (HepG2 [10]): 32.19%; Activity (HepG2 [11]): 6.15%; Activity (HepG2 [12]): 17.43%; Activity (HepG2 [13]): 0.3872 ng/mL; fold change (FC) (HepG2 [14]): 10; CC50 [5]: 28300 nM; selectivity ratio [15]: 18; pKi (CDK2/Cyclin A2): 7.60; pIC50 [16]: 5.87; pKi [16]: 6.08; pIC50 [17]: 5.16; pKi [17]: 5.42; pIC50 [18]: 5.70; pKi [18]: 5.90
O=C(C=CNc1cc(-c2ccccc2)nn1-c1ccccc1)c1ccc(Br)cc1	4.66	5.06	6.29			
N#Cc1c(-c2ccc(Cl)cc2)nc2c(c(-c3ccccc3)nn2-c2ccccc2)c1-c1ccc(N2CCCCC2)cc1	4.97	5.49	6.71	12500	3.89	
COc1ccc(-c2nc3c(c(-c4ccccc4)nn3-c3ccccc3)c(-c3ccc(N4CCOCC4)cc3)c2C#N)cc1	6.03	5.09	6.66			Activity (MCF7 [19]): 44.38%; Activity (MCF7 [20]): 34.42%; Activity (MCF7 [21]): 21.2%; Activity (MCF7 [22]): 24.36%; Activity (MCF7 [23]): 24.4%; Activity (MCF7 [24]): 9.36%; Activity (MCF7 [25]): 9.86%; Activity (MCF7 [26]): 20.32 ng/mL; fold change (FC) (MCF7 [27]): 9; CC50 [5]: 55700 nM; selectivity ratio [15]: 59.9; pKi (CDK2/Cyclin A2): 6.88; pIC50 [16]: 6.14; pKi [16]: 6.36; pIC50 [17]: 4.67; pKi [17]: 4.94; pIC50 [18]: 6.50; pKi [18]: 6.69
N#Cc1c(-c2ccccc2)nc2c(c(-c3ccccc3)nn2-c2ccccc2)c1-c1ccc(N2CCOCC2)cc1	5.48	4.98	7.02			
N#Cc1c(-c2ccc(Cl)cc2)nc2c(c(-c3ccccc3)nn2-c2ccccc2)c1-c1ccc(N2CCOCC2)cc1	5.44	4.67	6.19			
O=C(C=CNc1cc(-c2ccccc2)nn1-c1ccccc1)c1ccccc1	5.02	5.58	6.50	53400	20.1	
CC(C)c1cnn2c(NCc3ccccc3)cc(N[C@@H](CO)[C@H](O)CO)nc12						pIC50 (MCF7 [28]): 6.52; pIC50 (HepG2 [29]): 6.00
Brc1ccc(-c2ccnc3c2c(-c2ccccc2)nn3-c2ccccc2)cc1	4.88	4.30	7.09			
c1ccc(-c2nn(-c3ccccc3)c3nccc(-c4cccs4)c23)cc1	4.41	4.41	7.25			
COc1ccc(C(=O)C=CNc2cc(-c3ccccc3)nn2-c2ccccc2)cc1	5.89	5.69	7.38	35200	17.3	Activity (MCF7 [19]): 37.29%; Activity (MCF7 [20]): 59.24%; Activity (MCF7 [21]): 3.47%; Activity (MCF7 [22]): 36.51%; Activity (MCF7 [23]): 36.51%; Activity (MCF7 [24]): 2.69%; Activity (MCF7 [25]): 20.64%; Activity (MCF7 [26]): 18.96 ng/mL; fold change (FC) (MCF7 [27]): 9; CC50 [5]: 16900 nM; selectivity ratio [15]: 13.1; pKi (CDK2/Cyclin A2): 7.60; pIC50 [16]: 6.02; pKi [16]: 6.24; pIC50 [17]: 4.78; pKi [17]: 5.04; pIC50 [18]: 6.49; pKi [18]: 6.68
COc1ccc(-c2nc3c(c(-c4ccccc4)nn3-c3ccccc3)c(-c3ccc(N4CCCCC4)cc3)c2C#N)cc1	5.56	4.90	7.07			
N#Cc1c(-c2ccccc2)nc2c(c(-c3ccccc3)nn2-c2ccccc2)c1-c1ccc(N2CCCCC2)cc1	4.57	4.51	6.48			
Cc1ccc(-c2ccnc3c2c(-c2ccccc2)nn3-c2ccccc2)cc1	5.25	4.97	7.09			
O=C(C=CNc1cc(-c2ccccc2)nn1-c1ccccc1)c1ccc(F)cc1	5.04	4.22	6.88			
CN1CCN(c2ccc(-c3c(C#N)c(-c4ccc(Cl)cc4)nc4c3c(-c3ccccc3)nn4-c3ccccc3)cc2)CC1	5.57	4.84	6.89			
CN1CCN(c2ccc(-c3c(C#N)c(-c4ccccc4)nc4c3c(-c3ccccc3)nn4-c3ccccc3)cc2)CC1	4.84	5.50	6.79	15100	4.8	
COc1ccc(-c2nc3c(c(-c4ccccc4)nn3-c3ccccc3)c(-c3ccc(N4CCN(C)CC4)cc3)c2C#N)cc1	5.58	5.88	7.18	37500	28.2	Activity (HepG2 [6]): 48.02%; Activity (HepG2 [7]): 48.36%; Activity (HepG2 [8]): 3.62%; Activity (HepG2 [9]): 22.15%; Activity (HepG2 [10]): 22.2%; Activity (HepG2 [11]): 6.07%; Activity (HepG2 [12]): 11.17%; Activity (HepG2 [13]): 0.3714 ng/mL; fold change (FC) (HepG2 [14]): 10; pKi (CDK2/Cyclin A2): 7.40; pIC50 [16]: 6.68; pKi [16]: 6.90; pIC50 [17]: 3.98; pKi [17]: 4.24; pIC50 [18]: 6.65; pKi [18]: 6.84
Clc1ccc(-c2ccnc3c2c(-c2ccccc2)nn3-c2ccccc2)cc1	4.21	4.21	6.41			
